The test system of experiment [1] is system A transport in K562 cells and nucleated erythroblasts from fetal liver. The experiment can be described thus: System A (neutral amino acid) transport, 3H-MAIB uptake. The experiment is classed as cell-based, human. As to conditions: 1 hour incubation, FIG. 12. As to the method:
Inhibition of nutrient uptake is undesirable for treatment of anemias. Methyl aminoisobutyric acid (MAIB) labeled with tritium (^3H) is normally taken up by system A amino acid transport. Cold (unlabeled) compounds were added to cultures containing ^3H-MAIB and incubated for 1 hour. Cells were harvested and the amount of ^3H taken up by cells was quantitated by scintillation counting.

Experiment [2] relates to erythroid cells (peripheral blood cells). The experiment can be described thus: Erythroid cell viability by Calcein-AM fluorescent staining (FIG. 2). The experiment is classed as cell-based. As to the method: Compositions were tested for the ability to directly stimulate erythroid cell growth. Cell growth stimulation is a useful property for an agent to be used to treat anemias and distinguishes such agents from the cytotoxic drugs currently being tested for treatment of hemoglobinopathies. Cell viability analyses were performed using fluorescent staining to detect living cells. Cells were in log phase of growth in 6-well dishes when used in proliferation assays. For enumeration of living cells, wells were washed once with medium to remove nonadherent or dead cells. Remaining live cells were labeled with 2 μM 2′,7′-bis-(carboxyethyl)-5-(and 6)-carboxy-fluorescein acetoxy-methyl ester (Calcein-AM) (Molecular Probes; Eugene, Oreg.) for 20 minutes at 37° C. and washed once. Fluorescence intensity of live cells was read on a CytoFluor 2300 Fluorescence Plate Scanner (Millipore; Bedford, Mass.) at excitation and emission wavelengths of 485 and 530 nm, respectively. The fluorescence intensity of a well was proportional to the number of living cells in the well. Background fluorescence was measured separately for each plate and subtracted from all readings. Each experiment was performed in triplicate or quadruplicate. The standard deviation (SD) of repetitive readings was less than 30% of the mean. Results are depicted in FIG. 2.

A further experiment relates to anemic juvenile baboons. The experiment can be described thus: In vivo reticulocyte proliferation and globin expression in phlebotomized anemic baboons. The arrangement: species or system baboon. Summed up:
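Juvenile female baboons, phlebotomized daily to hemoglobin 7.0-7.5 g/dl, received compounds sequentially with washout to baseline reticulocytes, each animal its own control. HbF-positive reticulocytes were counted by dual-antibody FACS. γ/(γ+β) globin synthesis ratio came from ^3H-leucine labeling and chromatographic chain separation, unadjusted for phlebotomy.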

The test system of experiment [3] is human erythroid cell line K562. Nature of the experiment: Cell viability / growth of K562 by Calcein-AM fluorescence. The experiment is classed as cell-based. As to conditions: over 3 days. As to the method: Such activities might limit their utility for treatment of anemias such as occur in thalassemia, but alternatively would be useful for anticancer effects. To determine cell viability, human erythroid cells were cultured in the presence and absence of these compounds for 4 days and the amount of DNA fragmentation which occurred was measured.
Cell viability analyses were performed using fluorescent staining to detect living cells. Cells were in log phase of growth in 6-well dishes when used in proliferation assays. For enumeration of living cells, wells were washed once with medium to remove nonadherent or dead cells. Remaining live cells were labeled with Calcein-AM for 20 minutes at 37° C. and washed once. Fluorescence intensity of adherent live cells was read on a CytoFluor 2300 Fluorescence Plate Scanner (Millipore; Bedford, Mass.) at excitation and emission wavelengths of 485 and 530 nm, respectively. The fluorescence intensity of a well was proportional to the number of living cells in the well. Background fluorescence was measured separately for each plate and subtracted from all readings. Each experiment was performed in triplicate or quadruplicate. The standard deviation (SD) of repetitive readings was less than 30% of the mean.
At higher concentrations, still easily achievable in vivo, arginine butyrate (0.5 mM) and dihydrocinnamic acid (greater than 0.5 mM) inhibited growth of this tumor cell line by approximately 50%. Therefore, these compounds are also useful as anti-tumor agents.

For another experiment, the system named is K562 cells. Nature of the experiment: Dose response, total and viable cells by trypan blue exclusion (FIG. 3). The settings on record: day 4. The experiment is classed as cell-based, human. As to the method: FIG. 3 A FIG. 3E Cell viability as determined by the comparative numbers of total and viable K562 cells in the presence of increasing concentrations of (A) phenoxyacetic acid, (B) dihydrocinnamic acid, (C) butyric acid ethyl ester, (D) arginine butyrate, and (E) isobutyramide.
Dose response curves at dosages of up to 2.0 mM were also determined for phenoxyacetic acid (PAA; FIG. 3A), dihydrocinnamic acid (DHC; FIG. 3B), butyric acid ethyl ester (BAEE; FIG. 3C), arginine butyrate (AB; FIG. 3D) and isobutyramide (IBT; FIG. 3E). Cells were counted on day 4 of treatment and viable cells identified by trypan blue exclusion.

Experiment [4] deals with Human erythroleukemia cells. The experiment can be described thus: Fetal globin mRNA in erythroleukemia cells by primer extension. The experiment is classed as cell-based. The settings on record: 1.0 mM, 4 days. The protocol: Compounds were tested for increased expression of the human globin genes in human erythroid cells. In addition, as the cell line being tested is a tumor cell line, the assay determines if differentiation, a growth inhibitory effect on cancer cells, is induced by the compounds tested. Human erythroleukemia cells were cultured in RPMI media with 10% fetal calf serum alone or with treatment with various compounds for 4 days. Globin mRNA was quantitated by primer extension analysis. Fetal globin mRNA was compared to the amount of fetal globin mRNA produced in untreated cells during the same culture period. The quantitation was expressed as a percent of alpha globin mRNA which was constant. Results are expressed proportional to α-globin mRNA (Table 3).

The mark [5] stands for this setting: 1,000 to 1,500 mg/kg/day, 4 days.

Results on 2 molecules are retold here after patent publication US7910624B1, “Compositions for the treatment of blood disorders” (The Trustees of Boston University, priority 1995, dated 2011).

In the case of `CCCC(=O)O` [AB, arginine butyrate], the “system A transport of amino acids (3H-MAIB uptake)” value (“system A transport of amino acids” for short) in experiment [1] was “inhibited the neutral amino acid transport mechanism”. In addition, the “erythroid cell growth and proliferation compared to untreated controls (FIG. 2)” value in experiment [2] (0.2 mM) and in experiment [2] (0.5 mM) was “inhibited proliferation” throughout. The “response of the same monkey” value in the experiment on anemic juvenile baboons (1,000 mg/kg for 5 days or 2,000 mg/kg for 3 days) is “had not responded”. The “growth of K562” value in experiment [3] (0.2 mM) is listed as “either did not inhibit, or slightly enhanced growth”. The “cell growth (dose response, FIG. 3)” value in the experiment on K562 cells (concentrations above 0.2 mM) is recorded as “suppressed cell growth”. Besides, the “induction of fetal globin mRNA in human cells” value in experiment [4] is “significantly increased”.
On to `O=C(O)COc1ccccc1` [PAA, Phenoxyacetic acid], for which, in experiment [1] (listed as phenoxy acetic acid), the “system A transport of amino acids” value was “caused no significant inhibition and actually increased uptake of nutrients into cells”. In addition, the “system A transport of amino acids” value in experiment [1] (listed as phenoxyacetic acid) is reported as “do not significantly alter”. Moreover, the “erythroid cell growth and proliferation compared to untreated controls (FIG. 2)” value in experiment [2] (0.5 mM) was “either had no effect or stimulated erythroid cell growth and proliferation”. For the same molecule, in the experiment on anemic juvenile baboons (1,500 mg/kg each day, 5 days), the “time the effect maintained itself after drug was discontinued” value was “two days”. In addition, the reticulocytes after treatment in the experiment on anemic juvenile baboons (1,500 mg/kg each day, 5 days, from 1.9%) was 9.2 % of all red blood cells. The “white blood cell count after treatment” value in the experiment with anemic juvenile baboons (1,500 mg/kg each day, 5 days, from 6.9) is reported as 9.5 ×10^3 cells/μl. In addition, the “packed red blood cell volume after treatment” value in the experiment on anemic juvenile baboons (1,500 mg/kg each day, 5 days, from 22%) came to 25.4%. Further, in the experiment with anemic juvenile baboons (setting [5]), the “fetal reticulocytes, fold above baseline” value is given as “eight-fold”; the “fetal reticulocytes, percent above baseline” value turned out to be 800%; the “increase in output of fetal globin production over basal levels” value was 4,000%. In addition, in the experiment with anemic juvenile baboons (1,000 to 1,500 mg/kg/day, 4 days, from 0%), the “fetal globin protein synthesis after treatment” value came to 5%. For the same molecule, in the experiment with anemic juvenile baboons (another juvenile baboon, intravenous 1,000 to 1,500 mg/kg/day, 4 days, from 2%), the “fetal reticulocytes after treatment” value amounted to 16%. Also, in the experiment with anemic juvenile baboons (infused 1,500 mg/kg each day, 5 days (FIG. 7), from 6.8), the “total hemoglobin after treatment” value was determined as 7.6 grams/dl. Moreover, in the experiment on anemic juvenile baboons (infused 5 days, 500, 1,000 and 1,500 mg/kg (8 hours each), after 3 days (FIG. 9), from 12%), the “proportion of fetal reticulocytes on treatment” value is listed as 27%. The “growth of K562” value in experiment [3] (0.5 mM) is on record as “either did not inhibit, or slightly enhanced growth”. Besides, the “proliferation (dose response, FIG. 3)” value with K562 cells (up to 2.0 mM) was “did not significantly inhibit proliferation”. The “induction of fetal globin mRNA in human cells” value in experiment [4] is “significantly increased”. Besides, the “Gamma/Alpha (fetal globin mRNA proportional to α-globin mRNA)” value in experiment [4] (untreated 0.46) was found to be 0.70. Further, in experiment [4] (versus untreated), the “Gamma Globin mRNA (increase ↑)” value stood at 24% ↑.
